For data set [1] the following is noted: Crystal; DTA.
Data set [2] is described as follows: Molar enthalpy of transition or fusion. The conditions noted are these: Crystal; Adiabatic calorimetry.

± gives the expanded uncertainty stated by the source.

With `COC(=O)C=Cc1ccc(O)cc1` [2-propenoic acid, 3-(4-hydroxyphenyl)-, methyl ester], in data set [1], the Normal melting temperature amounted to 137.56 ± 1.1 °C. Moreover, the “Molar enthalpy of transition or fusion” value in data set [2] was determined as 7.22 ± 0.43 kcal/mol.

Take `COC(=O)/C=C/c1cc(OC)c(O)c(OC)c1` [3,5-dimethoxy-4-hydroxy cinnamic acid methyl ester]: the Normal melting temperature in data set [1] came to 88.64 ± 1.2 °C. In data set [2], the “Molar enthalpy of transition or fusion” value worked out at 7.14 ± 0.669 kcal/mol.

Take `COC(=O)C=Cc1ccc(O)c(OC)c1` [methyl 3-(4-hydroxy-3-methoxyphenyl)-2-propenoate]: the Normal melting temperature in data set [1] stood at 62.56 ± 0.95 °C. Besides, in data set [2], the “Molar enthalpy of transition or fusion” value was 6.17 ± 0.43 kcal/mol.

For the origin of these results see the NIST ThermoML archive (doi:10.1021/je9004382).
